What was measured:
[1] = Moisture sorption/desorption analysis for hygroscopicity; type: physicochemical; details: for initial weight loss upon equilibration: at 5% RH; for total weight gain: at 95% RH; for hygroscopicity: moisture sorption/desorption behavior
From the text: This weight was gradually regained by approximately 75% RH with a total weight gain of approximately 0.64% at 95% RH. Slightly more weight was lost during desorption with litle hysterisis.
The moisture sorption/desorption profiles of Compound 2 hydrochloride, Compound 2 acetate, and compound 2 adipate are presented in Table 7. […] Relative humidity was then increased and weight measurements taken at regular intervals. Change is given as percent of original sample.

[2] = Solubility in selected solvents; type: physicochemical; details: thermodynamic from solid
Procedure: The solubility of Compound 2 acetate was investigated with regard to potential process and formulation solvents. The solubility of Compound 2 acetate was evaluated by preparing saturated solution of Compound 2 in the selected solvents, filtering the samples (0.22 μm), diluting, and determining concentration by external standard HPLC using a rapid analysis assay.

heNOS = target: T1, heNOS (Homo sapiens, UniProt P29474); details: DAN assay, HEK293 cells transfected with NOS isoform; cited from earlier work
T1 construct: expressed in transfected cells; host or cells: HEK293
T1 sequence (P29474 2-1203 limits assumed): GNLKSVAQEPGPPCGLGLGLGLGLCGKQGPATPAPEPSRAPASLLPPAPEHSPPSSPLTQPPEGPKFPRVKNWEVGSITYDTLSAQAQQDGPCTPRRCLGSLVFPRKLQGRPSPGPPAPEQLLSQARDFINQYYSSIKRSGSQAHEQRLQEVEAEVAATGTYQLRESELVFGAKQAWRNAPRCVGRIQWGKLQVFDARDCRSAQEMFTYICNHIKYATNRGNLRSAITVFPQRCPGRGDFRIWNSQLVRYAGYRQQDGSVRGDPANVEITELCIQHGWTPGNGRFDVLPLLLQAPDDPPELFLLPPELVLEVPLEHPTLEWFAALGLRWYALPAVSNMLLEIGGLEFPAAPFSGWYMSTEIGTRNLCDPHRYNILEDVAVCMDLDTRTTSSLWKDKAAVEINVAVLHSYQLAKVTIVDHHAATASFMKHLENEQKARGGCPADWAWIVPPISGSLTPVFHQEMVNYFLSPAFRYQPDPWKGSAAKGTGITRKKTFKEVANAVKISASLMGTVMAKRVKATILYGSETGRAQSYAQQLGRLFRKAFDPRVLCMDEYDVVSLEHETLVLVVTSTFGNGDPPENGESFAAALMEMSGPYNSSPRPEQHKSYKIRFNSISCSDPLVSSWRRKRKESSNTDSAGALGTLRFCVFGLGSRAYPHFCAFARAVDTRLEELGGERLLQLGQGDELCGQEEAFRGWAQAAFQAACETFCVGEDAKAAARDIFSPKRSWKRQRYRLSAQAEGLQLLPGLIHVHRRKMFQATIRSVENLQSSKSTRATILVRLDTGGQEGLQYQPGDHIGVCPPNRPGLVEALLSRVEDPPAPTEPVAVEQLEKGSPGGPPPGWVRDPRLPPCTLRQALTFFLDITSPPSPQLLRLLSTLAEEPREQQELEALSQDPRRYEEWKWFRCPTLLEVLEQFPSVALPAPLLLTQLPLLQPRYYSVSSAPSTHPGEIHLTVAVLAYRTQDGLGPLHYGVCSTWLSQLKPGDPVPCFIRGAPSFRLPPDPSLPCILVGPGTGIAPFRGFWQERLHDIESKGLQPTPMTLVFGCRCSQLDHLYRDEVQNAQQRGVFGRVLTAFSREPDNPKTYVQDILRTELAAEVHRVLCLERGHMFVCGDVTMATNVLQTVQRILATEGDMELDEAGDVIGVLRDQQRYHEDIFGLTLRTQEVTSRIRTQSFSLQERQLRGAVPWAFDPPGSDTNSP

hnNOS = target: T2, hnNOS (Homo sapiens, UniProt P29475); details: DAN assay, HEK293 cells transfected with NOS isoform; cited from earlier work
T2 construct: expressed in transfected cells; host or cells: HEK293
T2 sequence (P29475 whole entry, canonical isoform): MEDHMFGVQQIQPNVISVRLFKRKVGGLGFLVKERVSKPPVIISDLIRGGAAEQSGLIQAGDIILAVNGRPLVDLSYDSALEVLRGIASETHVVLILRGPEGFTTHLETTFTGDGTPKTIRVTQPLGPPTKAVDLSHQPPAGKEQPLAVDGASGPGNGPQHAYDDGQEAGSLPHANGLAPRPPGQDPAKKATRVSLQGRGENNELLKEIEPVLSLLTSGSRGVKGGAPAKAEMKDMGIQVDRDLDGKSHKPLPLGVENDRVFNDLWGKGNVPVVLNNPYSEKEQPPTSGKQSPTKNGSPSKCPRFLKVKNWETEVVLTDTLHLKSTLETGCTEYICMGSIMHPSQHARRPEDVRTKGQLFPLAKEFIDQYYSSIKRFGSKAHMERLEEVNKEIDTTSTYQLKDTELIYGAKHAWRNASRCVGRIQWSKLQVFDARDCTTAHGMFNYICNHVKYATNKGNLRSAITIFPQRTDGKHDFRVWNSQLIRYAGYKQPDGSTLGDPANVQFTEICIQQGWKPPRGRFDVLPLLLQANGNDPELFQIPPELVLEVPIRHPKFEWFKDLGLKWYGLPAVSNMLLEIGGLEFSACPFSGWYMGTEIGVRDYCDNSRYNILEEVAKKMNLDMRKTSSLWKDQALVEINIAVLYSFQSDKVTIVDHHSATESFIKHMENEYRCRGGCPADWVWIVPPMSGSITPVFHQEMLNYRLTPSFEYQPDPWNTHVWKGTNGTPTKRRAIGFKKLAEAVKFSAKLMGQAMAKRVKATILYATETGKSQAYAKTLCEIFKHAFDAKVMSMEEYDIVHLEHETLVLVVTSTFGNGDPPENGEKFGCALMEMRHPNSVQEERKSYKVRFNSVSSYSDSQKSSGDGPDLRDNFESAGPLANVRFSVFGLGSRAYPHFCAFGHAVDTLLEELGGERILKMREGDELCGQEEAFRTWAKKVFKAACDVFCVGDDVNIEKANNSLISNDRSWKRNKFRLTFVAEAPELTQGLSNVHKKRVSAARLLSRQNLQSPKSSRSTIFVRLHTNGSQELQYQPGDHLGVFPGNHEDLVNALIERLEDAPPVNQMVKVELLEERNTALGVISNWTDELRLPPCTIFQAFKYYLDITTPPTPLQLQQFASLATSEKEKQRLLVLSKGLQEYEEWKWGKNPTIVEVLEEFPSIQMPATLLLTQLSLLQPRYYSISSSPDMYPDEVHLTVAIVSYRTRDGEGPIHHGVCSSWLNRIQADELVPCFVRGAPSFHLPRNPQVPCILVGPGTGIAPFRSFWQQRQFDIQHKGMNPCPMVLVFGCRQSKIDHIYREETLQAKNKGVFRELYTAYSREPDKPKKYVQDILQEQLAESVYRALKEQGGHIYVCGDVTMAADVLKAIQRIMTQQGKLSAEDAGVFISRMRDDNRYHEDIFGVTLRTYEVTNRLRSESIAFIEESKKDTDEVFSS

LPS Induced iNOS = details: rat; cited from earlier work
hiNOS = target: T3, hiNOS (Homo sapiens, UniProt P35228); details: DAN assay, HEK293 cells transfected with NOS isoform; cited from earlier work
T3 construct: expressed in transfected cells; host or cells: HEK293

Compound	Weight % Change, Adsorption ([1]; 5 Percent Relative Humidity) [%]	Weight % Change, Desorption ([1]; 5 Percent Relative Humidity) [%]	Weight % Change, Adsorption ([1]; 15 Percent Relative Humidity) [%]	Weight % Change, Desorption ([1]; 15 Percent Relative Humidity) [%]	Weight % Change, Adsorption ([1]; 25 Percent Relative Humidity) [%]	Weight % Change, Desorption ([1]; 25 Percent Relative Humidity) [%]	Weight % Change, Adsorption ([1]; 35 Percent Relative Humidity) [%]	Weight % Change, Desorption ([1]; 35 Percent Relative Humidity) [%]	Weight % Change, Adsorption ([1]; 45 Percent Relative Humidity) [%]	Weight % Change, Desorption ([1]; 45 Percent Relative Humidity) [%]	Weight % Change, Adsorption ([1]; 55 Percent Relative Humidity) [%]	Weight % Change, Desorption ([1]; 55 Percent Relative Humidity) [%]	Weight % Change, Adsorption ([1]; 65 Percent Relative Humidity) [%]	Weight % Change, Desorption ([1]; 65 Percent Relative Humidity) [%]	Weight % Change, Adsorption ([1]; 75 Percent Relative Humidity) [%]	Weight % Change, Desorption ([1]; 75 Percent Relative Humidity) [%]	Weight % Change, Adsorption ([1]; 85 Percent Relative Humidity) [%]	Weight % Change, Desorption ([1]; 85 Percent Relative Humidity) [%]	Weight % Change, Adsorption ([1]; 95 Percent Relative Humidity) [%]	hygroscopicity [1]	also measured
CN(CCCNCc1ccc2c(c1)OCO2)c1nc(-n2ccnc2)ns1.O=C(O)CCCCC(=O)O [Compound 2 adipate, N′-Benzo[1,3]dioxol-5-ylmethyl-N-(3-imidazol-1-yl-[1,2,4]thiadiazol-5-yl)-N-methyl-propane-1,3-diamine adipate salt]	<0	<0	<0	<0	<0	<0	<0	<0	<1	<1	<1	<1	<1	<1	<2	<2	<3	<3	>6	hygroscopic, especially at elevated humidities	Weight % Change, Desorption ([1]; 95 Percent Relative Humidity): >6%; initial weight loss upon equilibration [1]: less than 1%; total weight gain [1]: over 6%
CC(=O)O.CN(CCCNCc1ccc2c(c1)OCO2)c1nc(-n2ccnc2)ns1 [Compound 2 acetate, N′-Benzo[1,3]dioxol-5-ylmethyl-N-(3-imidazol-1-yl-[1,2,4]thiadiazol-5-yl)-N-methyl-propane-1,3-diamine acetate salt]	<1	<1	<1	<1	<1	<1	<1	<1	<1	<1	<1	<1	<1	<1	<1	<1	<3	<3	<5	significantly hygroscopic at high RH	solubility ([2]; acetonitrile, organic solvent or mixture): 2.1 mg/mL; solubility ([2]; dichloromethane, organic solvent or mixture): 10 mg/mL; solubility ([2]; ethanol, organic solvent or mixture): 8.5 mg/mL; solubility ([2]; ethyl acetate, organic solvent or mixture): 2 mg/mL; solubility ([2]; hexanes, organic solvent or mixture): 0.003 mg/mL; solubility ([2]; isopropanol, organic solvent or mixture): 3.7 mg/mL; solubility ([2]; methanol, organic solvent or mixture): 58.3 mg/mL; solubility ([2]; propylene glycol, organic solvent or mixture): 36.7 mg/mL; solubility ([2]; water): 44.6 mg/mL; solubility ([2]; water:ethanol:propylene glycol (40:40:20), aqueous with cosolvent or surfactant or cyclodextrin): 101 mg/mL; Weight % Change, Desorption ([1]; 95 Percent Relative Humidity): <5%; weight gain ([1]; over the range of 5 to 85% relative humidity (RH)): minimal weight gain
CN(CCCNCc1ccc2c(c1)OCO2)c1nc(-n2ccnc2)ns1.Cl [Compound 2 hydrochloride, N′-Benzo[1,3]dioxol-5-ylmethyl-N-(3-imidazol-1-yl-[1,2,4]thiadiazol-5-yl)-N-methyl-propane-1,3-diamine hydrochloride salt]	<−1	<−2	<−1	<−1	<−1	<−1	<−1	<−1	<−1	<−1	<−1	<0	<0	<0	<0	<1	<1	<2	<5	not hygroscopic	Weight % Change, Desorption ([1]; 95 Percent Relative Humidity): <5%; initial weight loss upon equilibration [1]: < 1%; total weight gain [1]: < 5%
CN(CCCNCc1ccc2c(c1)OCO2)c1nc(-n2ccnc2)ns1 [Compound 2, N′-Benzo[1,3]dioxol-5-ylmethyl-N-(3-imidazol-1-yl-[1,2,4]thiadiazol-5-yl)-N-methyl-propane-1,3-diamine]																				not hygroscopic	EC50 (heNOS): > 10 µM; EC50 (hnNOS): > 1 µM; LPS Induced iNOS In Vivo, ED50 (LPS Induced iNOS): + ((+), ED50 <10); initial weight loss upon equilibration [1]: approximately 0.16%; total weight gain [1]: approximately 0.64%; EC50 (hiNOS): < 1 µM
Benzo[1,3]dioxol-5-ylmethyl-{2-[2-(2-imidazol-1-yl-6-methyl-pyrimidin-4-yl)-pyrrolidin-1-yl]-ethyl}-amine [Compound 1]																					EC50 (heNOS): > 10 µM; EC50 (hnNOS): > 1 µM; LPS Induced iNOS In Vivo, ED50 (LPS Induced iNOS): + ((+), ED50 <10); EC50 (hiNOS): < 1 µM

— US20070197609A1, “SALTS OF INDUCIBLE NITRIC OXIDE SYNTHASE DIMERIZATION INHIBITORS” (KALYPSYS, INC., priority 2005, published 2007)
